Results from article PMC8878047 (Pharmaceutics, 2022).
Where two headings read alike, the source gives them in different places.

Assays:
[1] = system: neutrophil cluster aggregation; assay: CuSO4-induced inflammation model in Tg(mpx:eGFP) zebrafish; conditions: 10 μM CuSO4 40 min, Tg(mpx:eGFP) 3 dpf
[2] = Pharmacokinetic study in plasma after oral administration (HPLC-MS); conditions: SD rats, EFX 10 mg/kg, EFX-Ca 12 mg/kg
E. coli = assay: Quasi-clinical trial on E. coli-infected AA broilers (drug-mixed feeding); conditions: for Average Final Weight / Average Weight Gain / Average Increment of Weight / Cure Rate (%) / Survival Number: AA broilers; for Average Weight Gain: Table 7; for Average Increment of Weight: Table 8; for Cure Rate (%) / Survival Number: 6 d; for Survival Number: 50 per group
Method: Then, broilers were randomly and equally divided into five different groups and marked as five groups. […] Note that the daily drug-mixed feeding ratio (g drug/kg feed) was indicated for the first 4 h every day, and unmedicated feed then followed. In addition, E. coli strains for the infection of chicken was supplied as a freeze-dried powder. They were revived and cultured according to the standard procedures. The strain was inoculated into a liquid medium and cultured in a 37 °C incubator for 6–8 h. We detected the concentration of the bacterial liquid to be 2.8 × 10^8 CFU/mL as the pathogenic concentration. Finally, all of the chickens except the healthy control group were intramuscularly injected with 0.5 mL of pathogenic bacteria, and all chickens were fasted for 4 h. After successfully simulating the bacterial infection of the chickens, the drug-mixed feeding chickens were continuously fed for 6 d. During this time, we observed their behavioral habits, mortality, and recovery rates.

[3] = Protocol: All tests were conducted in the animal experimental center of Guangxi Medical University. Preliminary experiments were needed before starting official tests. […] Groups of mice (n = 10 per group, half male and half female) received different doses of the tested compounds by gavage at the same single dose of drug solution, which was uniformed to be […] (drug solution)/10 g, but containing different concentration of tested drugs. […] We compared these mice with the control group in which the mice were not given drugs, according to the pre-experimental procedure. We closely observed the mice for 6 h after the gavage for signs of toxicity and mortality. As soon as death occurred among the maximum-dose group, we conducted an autopsy and took samples from the main organs for histopathological examination. In addition, we monitored all of the tested mice for 2 weeks to record their weight and mortality.
[4] = system: H2O2-induced ROS production; assay: H2O2-induced oxidative stress model in zebrafish (DCFH-DA); conditions: 48 h pre-treatment, H2O2 1.0 mM 4 h, H2O2-induced 17,250, control 590
[5] = EFX-Ca High 14 g drug (5% solution) + 1.5 kg feed/4 h
[6] = EFX-Ca Low 6 g drug (5% solution) + 1.5 kg feed/4 h
[7] = EFX-Ca Medium 9 g + 1.5 kg feed
[8] = EFX-Ca Medium 9 g drug (5% solution) + 1.5 kg feed/4 h

CCN1CCN(c2cc3c(cc2F)c(=O)c(C(=O)[O-])cn3C2CC2)CC1.CCN1CCN(c2cc3c(cc2F)c(=O)c(C(=O)[O-])cn3C2CC2)CC1.O.O.O.O.[Ca+2] [EFX-Ca, [Ca(EFX)2(H2O)4]·H2O]
CuSO4-induced neutrophil aggregation ([1]; 0.1 μM pre-incubation 1 h): significantly dispersed
CuSO4-induced neutrophil aggregation ([1]; 1 μM pre-incubation 1 h): the neutrophil aggregation was more effectively inhibited
Ke ([2]; plasma): 0.16
Tmax ([2]; plasma): 0.75 H
Vd ([2]; plasma): 0.26744 L/kg
t 1/2β ([2]; plasma): 4.41 H
concentration at 0 h ([2]; male, SD, rat, in vivo, Drug concentration in plasma, 0 h): 80 ng/mL
concentration at 0.083 h ([2]; male, SD, rat, in vivo, Drug concentration in plasma, 0.083 h): 860 ng/mL
concentration at 0.333 h ([2]; male, SD, rat, in vivo, Drug concentration in plasma, 0.333 h): 840 ng/mL
concentration at 0.5 h ([2]; male, SD, rat, in vivo, Drug concentration in plasma, 0.5 h): 1690 ng/mL
concentration at 0.75 h ([2]; male, SD, rat, in vivo, Drug concentration in plasma, 0.75 h): 1920 ng/mL
concentration at 1 h ([2]; male, SD, rat, in vivo, Drug concentration in plasma, 1 h): 1390 ng/mL
concentration at 3 h ([2]; male, SD, rat, in vivo, Drug concentration in plasma, 3 h): 770 ng/mL
concentration at 4 h ([2]; male, SD, rat, in vivo, Drug concentration in plasma, 4 h): 700 ng/mL
concentration at 6 h ([2]; male, SD, rat, in vivo, Drug concentration in plasma, 6 h): 580 ng/mL
concentration at 8 h ([2]; male, SD, rat, in vivo, Drug concentration in plasma, 8 h): 480 ng/mL
concentration at 10 h ([2]; male, SD, rat, in vivo, Drug concentration in plasma, 10 h): 100 ng/mL
concentration at 12 h ([2]; male, SD, rat, in vivo, Drug concentration in plasma, 12 h): 140 ng/mL
concentration at 24 h ([2]; male, SD, rat, in vivo, Drug concentration in plasma, 24 h): 90 ng/mL
Average Final Weight (E. coli; EFX-Ca High 14 g + 1.5 kg feed): 1750 ± 125 g
Average Weight Gain (E. coli; EFX-Ca High 14 g + 1.5 kg feed): 250
Average Increment of Weight (E. coli; EFX-Ca High 14 g + 1.5 kg feed): 230 g
Cure Rate (%) (E. coli; [5]): 60%
Survival Number (E. coli; [5]): 30
Average Final Weight (E. coli; EFX-Ca Low 6 g + 1.5 kg feed): 1690 ± 95 g
Average Weight Gain (E. coli; EFX-Ca Low 6 g + 1.5 kg feed): 190
Average Increment of Weight (E. coli; EFX-Ca Low 6 g + 1.5 kg feed): 190 g
Cure Rate (%) (E. coli; [6]): 54%
Survival Number (E. coli; [6]): 27
Average Final Weight (E. coli; [7]): 1640 ± 73 g
Average Weight Gain (E. coli; [7]): 140
Average Increment of Weight (E. coli; [7]): 280 g
Cure Rate (%) (E. coli; [8]): 78%
Survival Number (E. coli; [8]): 39
highest cure rate, higher than the EFX dose group by (E. coli; AA infected chickens, EFX-Ca medium dose vs EFX): 25.8%
Body Weight (g, x¯ ± SD) ([3]; 2000 mg/kg single gavage, Day-0): 17.51 ± 1.14 g
Body Weight (g, x¯ ± SD) ([3]; 2000 mg/kg single gavage, Day-1): 19.77 ± 1.22 g
Body Weight (g, x¯ ± SD) ([3]; 2000 mg/kg single gavage, Day-4): 25.91 ± 1.83 g
Body Weight (g, x¯ ± SD) ([3]; 2000 mg/kg single gavage, Day-7): 29.78 ± 3.46 g
Body Weight (g, x¯ ± SD) ([3]; 2000 mg/kg single gavage, Day-14): 33.33 ± 5.64 g
Body Weight (g, x¯ ± SD) ([3]; 3031 mg/kg single gavage, Day-0): 18.32 ± 0.94 g
Body Weight (g, x¯ ± SD) ([3]; 3031 mg/kg single gavage, Day-1): 19.61 ± 1.23 g
Body Weight (g, x¯ ± SD) ([3]; 3031 mg/kg single gavage, Day-4): 25.70 ± 1.24 g
Body Weight (g, x¯ ± SD) ([3]; 3031 mg/kg single gavage, Day-7): 28.44 ± 2.14 g
Body Weight (g, x¯ ± SD) ([3]; 3031 mg/kg single gavage, Day-14): 33.91 ± 5.25 g
Body Weight (g, x¯ ± SD) ([3]; 4595 mg/kg single gavage, Day-0): 17.31 ± 1.05 g
Body Weight (g, x¯ ± SD) ([3]; 4595 mg/kg single gavage, Day-1): 17.09 ± 1.56 g
Body Weight (g, x¯ ± SD) ([3]; 4595 mg/kg single gavage, Day-4): 20.10 ± 5.55 g
Body Weight (g, x¯ ± SD) ([3]; 4595 mg/kg single gavage, Day-7): 26.43 ± 5.34 g
Body Weight (g, x¯ ± SD) ([3]; 4595 mg/kg single gavage, Day-14): 33.60 ± 7.07 g
Body Weight (g, x¯ ± SD) ([3]; 6964 mg/kg single gavage, Day-0): 17.68 ± 0.88 g
Body Weight (g, x¯ ± SD) ([3]; 6964 mg/kg single gavage, Day-1): 17.21 ± 1.22 g
Body Weight (g, x¯ ± SD) ([3]; 6964 mg/kg single gavage, Day-4): 16.89 ± 5.13 g
Body Weight (g, x¯ ± SD) ([3]; 6964 mg/kg single gavage, Day-7): 23.11 ± 4.21 g
Body Weight (g, x¯ ± SD) ([3]; 6964 mg/kg single gavage, Day-14): 29.30 ± 5.26 g
Body Weight (g, x¯ ± SD) ([3]; 10,556 mg/kg single gavage, Day-0): 17.67 ± 0.72 g
Body Weight (g, x¯ ± SD) ([3]; 10,556 mg/kg single gavage, Day-1): 17.00 ± 0.30 g
Body Weight (g, x¯ ± SD) ([3]; 10,556 mg/kg single gavage, Day-4): 21.53 ± 2.10 g
Body Weight (g, x¯ ± SD) ([3]; 10,556 mg/kg single gavage, Day-7): 26.47 ± 3.50 g
Body Weight (g, x¯ ± SD) ([3]; 10,556 mg/kg single gavage, Day-14): 34.00 ± 7.50 g
Body Weight (g, x¯ ± SD) ([3]; 16,000 mg/kg single gavage, Day-0): 17.84 ± 1.23 g
Body Weight (g, x¯ ± SD) ([3]; 16,000 mg/kg single gavage, Day-1): 17.43 ± 1.95 g
Body Weight (g, x¯ ± SD) ([3]; 16,000 mg/kg single gavage, Day-4): 23.55 ± 2.66 g
Body Weight (g, x¯ ± SD) ([3]; 16,000 mg/kg single gavage, Day-7): 29.15 ± 2.66 g
Body Weight (g, x¯ ± SD) ([3]; 16,000 mg/kg single gavage, Day-14): 37.25 ± 4.57 g
Average IOD (integrated optical density) of green fluorescence ([4]; 0.01 μM): 1060 a.u.
Average IOD (integrated optical density) of green fluorescence ([4]; 0.1 μM): 721 a.u.
